Reference: patent publication US20160106439A1, “PNEUMATIC TOURNIQUET” (BIONUMERIK PHARMACEUTICALS, INC., priority 2013, published 2016)
Where two headings read alike, the source gives them in different places.

Legend:
Recombinant human Trx [1] = target: T1, Recombinant human Trx (Homo sapiens, UniProt P10599); test: IEF PAGE of Trx incubated with Tavocept; format: binding; set-up: purchased Sigma (SigmaAldrich); host or cells: E. coli; settings: Tavocept 10 mM, 37° C.
T1 sequence (P10599 1-105): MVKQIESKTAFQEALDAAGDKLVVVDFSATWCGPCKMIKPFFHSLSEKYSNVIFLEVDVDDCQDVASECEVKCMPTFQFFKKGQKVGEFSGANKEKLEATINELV

[2] = target: T2, recombinant human farnesyltransferase (Homo sapiens, UniProt P49354+P49356); test: Farnesyltransferase Dansyl-GCVLS fluorescence assay; format: biochemical; settings: 25 nM FTase, 3 μM Dansyl-GCVLS, 25° C.
T2 construct: purchased Abcam
Protocol: Tavocept-inhibited human farnesyltransferase-mediated transfer of farnesylpyrophosphate to the cysteine residue in a danyslated peptide substrate of sequence glycine-cysteine-valine-leucine-serine (designated-Dansyl-GCVLS) in vitro. See, FIG. 79. The assay reactions contained 25 nM recombinant human farnesyltransferase (Abcam), 10 μM farnesylpyrophosphate (SigmaAldrich), 3 μM Dansyl-GCVLS (NeoBioScience) in Tris buffer (50 mM, pH 7.5) containing 5 mM MgCl2, 10 μM ZnCl2, and 0.2% octyl-β-D-glucopyranoside. Total assay volumes were 50 μL and the reactions were initiated by the addition of FTase (5 μL of 250 nM stock was added to 45 μL of assay components listed above). The excitation wavelength was 340 nm (a 340 nm filter with 25 nm bandpass) and the emission wavelength was […] (505 nm filter with 20 nm bandpass) and the assay temperature was 25° C. Progress curves of the transfer of the farnesylpyrophosphate to the Dansyl-GCVLS substrate are shown in FIG. 79, Panel A and relative rates of the progress curve were determined and are shown in FIG. 79, Panel B.

Peroxiredoxin (Prx) = target: T3, Peroxiredoxin (Prx) (Homo sapiens, UniProt Q06830); test: Peroxiredoxin activity (summary Table 27); format: biochemical; settings: disrupts active site structure
T3 construct: purchased SigmaAldrich

Recombinant human Trx [3] = target: T1, Recombinant human Trx; test: LC MS of Trypsin digested Trx after incubation with Tavocept, mesna or glutathione; format: binding; set-up: purchased Sigma (SigmaAldrich); host or cells: E. coli; settings: 10 mM, 4 to 6 hours
RNR subunit 1 = RNR subunit 1 (Homo sapiens, UniProt P23921); test: Whole protein MS of RNR subunit 1; format: binding; settings: whole protein Mass Spectroscopy
Description: RNR1 contains a total of sixteen (16) cysteine residues and at least five (5) of these cysteine residues are required for catalysis, including: Cys218, Cys429, Cys444, Cys787, and Cys790. It is hypothesized that the Tavocept-derived mesna adducts identified on the RNR1 protein using whole protein Mass Spectroscopy (see, FIG. 49) may alter or modulate RNR activity.

T790M EGFR kinase = T790M EGFR kinase (Homo sapiens, UniProt P00533, T790M); test: T790M EGFR kinase assay (ADP-glo); format: biochemical
[4] = target: T4, human glutaredoxin (Grx1) (Homo sapiens, UniProt P35754); test: X-ray crystallography of Grx1 with Tavocept-derived mesna adducts; format: binding; settings: 40 mM Tavocept
T4 construct: 6xHis (TEV-cleavable) (N, cleaved yes); made in house; host or cells: E. coli BL21 (RIPL)
Description: Diffraction data were collected at the Advanced Light Source (ALS) (Berkeley, Calif.). […] Data was processed using the program package MosFlm as part of the ccp4 program package.
Data was indexed, integrated, scaled and merged using the program Mosflm. […] The solution was consistent with one molecule in the crystal asymmetric unit. […] The structure solution is supported by contiguous electron density for the entire chain trace of each molecule, landmark side chain density features matching the amino acid sequence including cysteines, absence of phi-psi violations and final R/Rfree values in the normal range. […] Residues Gln39 and Glu55 have missing side-chain atoms in the final structures (side chain atoms CD, CG, OE1, NE2 and CD, OE1, OE2, respectively).

Chain of T790M EGFR kinase (P00533 25-1210 T790M): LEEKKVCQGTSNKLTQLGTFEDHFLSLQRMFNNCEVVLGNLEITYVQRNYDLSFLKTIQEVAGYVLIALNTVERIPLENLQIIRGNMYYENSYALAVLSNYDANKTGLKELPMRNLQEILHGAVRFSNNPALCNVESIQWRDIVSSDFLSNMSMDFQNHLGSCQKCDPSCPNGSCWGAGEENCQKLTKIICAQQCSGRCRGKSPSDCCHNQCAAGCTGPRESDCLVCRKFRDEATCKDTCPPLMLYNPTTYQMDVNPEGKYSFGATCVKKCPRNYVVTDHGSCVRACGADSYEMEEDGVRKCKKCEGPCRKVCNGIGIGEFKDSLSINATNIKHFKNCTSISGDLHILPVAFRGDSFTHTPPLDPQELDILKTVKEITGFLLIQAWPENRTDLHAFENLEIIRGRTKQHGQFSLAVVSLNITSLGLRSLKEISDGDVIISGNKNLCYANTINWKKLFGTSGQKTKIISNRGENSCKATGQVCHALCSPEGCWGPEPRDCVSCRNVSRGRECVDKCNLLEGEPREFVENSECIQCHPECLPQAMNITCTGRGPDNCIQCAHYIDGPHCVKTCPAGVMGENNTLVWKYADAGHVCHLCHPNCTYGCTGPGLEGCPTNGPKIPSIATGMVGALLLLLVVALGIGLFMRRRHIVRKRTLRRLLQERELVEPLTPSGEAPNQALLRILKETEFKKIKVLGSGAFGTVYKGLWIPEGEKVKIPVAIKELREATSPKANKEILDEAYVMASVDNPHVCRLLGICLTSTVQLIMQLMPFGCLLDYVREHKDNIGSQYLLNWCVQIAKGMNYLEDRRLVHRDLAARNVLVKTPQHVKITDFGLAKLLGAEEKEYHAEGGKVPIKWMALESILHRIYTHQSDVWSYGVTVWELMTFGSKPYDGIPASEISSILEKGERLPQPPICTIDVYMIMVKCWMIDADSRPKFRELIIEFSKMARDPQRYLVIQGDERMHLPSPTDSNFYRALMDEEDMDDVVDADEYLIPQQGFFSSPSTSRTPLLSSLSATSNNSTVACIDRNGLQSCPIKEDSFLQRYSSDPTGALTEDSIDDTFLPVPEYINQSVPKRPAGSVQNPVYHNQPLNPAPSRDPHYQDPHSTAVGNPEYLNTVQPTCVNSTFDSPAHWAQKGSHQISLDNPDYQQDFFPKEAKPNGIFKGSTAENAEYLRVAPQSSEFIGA
T3 sequence (Q06830 whole entry): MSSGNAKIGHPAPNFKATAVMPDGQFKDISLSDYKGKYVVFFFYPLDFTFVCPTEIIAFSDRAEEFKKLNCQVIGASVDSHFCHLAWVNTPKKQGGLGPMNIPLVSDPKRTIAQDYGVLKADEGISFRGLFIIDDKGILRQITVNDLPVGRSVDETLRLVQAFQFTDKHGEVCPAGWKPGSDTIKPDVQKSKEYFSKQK
Chain of RNR subunit 1 (P23921 whole entry): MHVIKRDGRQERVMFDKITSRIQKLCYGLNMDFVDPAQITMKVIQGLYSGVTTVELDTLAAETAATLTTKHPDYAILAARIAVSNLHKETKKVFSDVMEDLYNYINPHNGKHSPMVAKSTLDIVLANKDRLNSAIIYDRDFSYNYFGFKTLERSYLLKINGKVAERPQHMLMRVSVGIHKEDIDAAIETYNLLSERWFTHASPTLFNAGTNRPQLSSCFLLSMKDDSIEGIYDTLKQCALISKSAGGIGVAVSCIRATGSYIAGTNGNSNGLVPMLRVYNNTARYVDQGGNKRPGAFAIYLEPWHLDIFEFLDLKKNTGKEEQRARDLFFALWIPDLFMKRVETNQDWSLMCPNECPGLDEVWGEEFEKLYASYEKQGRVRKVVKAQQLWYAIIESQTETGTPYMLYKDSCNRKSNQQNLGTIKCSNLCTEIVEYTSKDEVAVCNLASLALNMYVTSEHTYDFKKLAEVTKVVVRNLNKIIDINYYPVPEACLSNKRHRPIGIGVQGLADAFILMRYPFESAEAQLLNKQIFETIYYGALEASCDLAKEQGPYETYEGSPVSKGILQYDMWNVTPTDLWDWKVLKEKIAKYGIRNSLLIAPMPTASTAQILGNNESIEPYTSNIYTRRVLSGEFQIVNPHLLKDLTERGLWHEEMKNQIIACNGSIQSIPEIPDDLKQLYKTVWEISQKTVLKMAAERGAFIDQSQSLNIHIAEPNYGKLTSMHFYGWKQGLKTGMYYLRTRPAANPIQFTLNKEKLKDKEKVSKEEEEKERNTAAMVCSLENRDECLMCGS
T2 sequence (P49356 whole entry, one chain of several): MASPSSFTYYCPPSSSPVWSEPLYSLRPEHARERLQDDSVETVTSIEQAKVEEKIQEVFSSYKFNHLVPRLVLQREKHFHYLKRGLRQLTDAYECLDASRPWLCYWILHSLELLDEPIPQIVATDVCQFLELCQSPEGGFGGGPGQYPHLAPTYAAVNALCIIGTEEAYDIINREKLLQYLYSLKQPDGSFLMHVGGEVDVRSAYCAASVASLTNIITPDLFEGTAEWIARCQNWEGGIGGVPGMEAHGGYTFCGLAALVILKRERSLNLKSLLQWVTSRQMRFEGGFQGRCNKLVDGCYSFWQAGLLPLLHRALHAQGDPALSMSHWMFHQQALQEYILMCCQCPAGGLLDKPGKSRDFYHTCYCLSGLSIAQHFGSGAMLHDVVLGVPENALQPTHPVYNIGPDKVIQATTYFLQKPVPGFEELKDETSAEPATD
T4 sequence (P35754 whole entry): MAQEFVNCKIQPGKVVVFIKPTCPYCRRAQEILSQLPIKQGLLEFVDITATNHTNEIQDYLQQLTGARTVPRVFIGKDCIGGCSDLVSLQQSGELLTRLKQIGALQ

O=S(=O)([O-])CCSSCCS(=O)(=O)[O-].[Na+].[Na+] [Tavocept, disodium 2,2′-dithio-bis-ethane sulfonate]
Trx migration on IEF gel (Recombinant human Trx [1]): shift in Trx migration
Inhibition of farnesylation [2]: inhibits farnesylation in a concentration-dependent manner
Effect on Prx (Peroxiredoxin (Prx)): resulting in impaired enzyme activity
Mesna-Cysteine Adduct Detected? (Recombinant human Trx [3]; fragment CMPTFQFFK (cys73)): Yes
Mesna-Cysteine Adduct Detected? (Recombinant human Trx [3]; fragment LVVVDFSATWCGPCK (active site cys32 and cys35)): No
Mesna-Cysteine Adduct Detected? (Recombinant human Trx [3]; fragment YSNVIFLEVDVDDCQDVASECEVK (cys62 and cys69)): Yes
number of Tavocept-derived mesna adducts on RNR1 cysteine residues (RNR subunit 1): ≤ 8
potentiation of Erlotinib inhibition of T790M EGFR kinase (T790M EGFR kinase; 10 μM ATP): strongly potentiated
IC50 (T790M EGFR kinase; 10 μM ATP, read-out: IC50 on T790M EGFR kinase activity): > 40 mM
inhibition of T790M EGFR kinase (T790M EGFR kinase; 10 μM or 100 μM ATP, physiological concentrations (<20 mM)): did not notably inhibit
IC50 (T790M EGFR kinase; 100 μM ATP, read-out: IC50 on T790M EGFR kinase activity): > 40 mM
IC50 (T790M EGFR kinase; read-out: IC50 on T790M EGFR kinase): > 40 mM
Tavocept-derived mesna adduct sites on Grx [4]: observed on Cys7 and Cys82
